For orientation: solubility means the concentration that dissolves in the medium under given conditions.

These results are taken from patent US4943579A, “Water soluble prodrugs of camptothecin” (priority 1987, dated 1990).

Converted amounts (≈) assume the structure as drawn. Structures can show the parent of a compound that is named as a salt. Where two headings read alike, the source gives them in different places. A value given as a limit tells only on which side of the number the result lay.

Series [1] can be described thus: In vitro murine plasma hydrolysis of prodrugs. To be noted: mouse, initial drug concentration 50 mcg/ml, read-out: t1/2 of hydrolysis in murine plasma. The format is in vitro ADME. The text has this: (§1) The data are shown to reflect the relative hydrolysis rates as measured by t1/2, the time required for the concentration of the drug to become one half of the starting concentration. Freshly obtained samples of human and murine plasma were used in these studies.
(§2) ^(a) Initial drug concentration (50 mcg/ml)

The nature of the next series: Aqueous solubility. To be noted: water. It is filed as physicochemical. As for the experimental part:
(§3) Table 1 represents the aqueous solubility and the anti-tumor activity of these compounds. The anti-tumor testing was carried out in CDF-1 mice in which were implanted L-1210 lymphoid leukemia, and the drug is delivered intraperitoneally on a schedule of QD4X2.

Series [2] in a line: In vitro human plasma hydrolysis of prodrugs. It is filed as in vitro ADME. To be noted: initial drug concentration 50 mcg/ml, read-out: t1/2 of hydrolysis in human plasma.
Excerpt: as §1, §2

The next series concerns L-1210 lymphoid leukemia. As to the kind of experiment: Anti-tumor activity in CDF-1 mice implanted with L-1210 lymphoid leukemia (IP/IP, QD4 × 2). The format is in vivo. The conditions noted are these: Mus musculus, read-out: T/C; for response vs control in vivo at 50 mg/kg: 50 mg/Kg per injection; for response vs control in vivo at 30 mg/kg: 30 mg/Kg per injection. As for the experimental part:
as §3

The conditions of series [3]: animal models; Wani et al. 1980; cited from earlier work.
The conditions of series [4]: early clinical studies; cited from earlier work.
The conditions of series [5]: cited from earlier work.
The conditions of series [6]: subsequent biological evaluation in earlier reports; cited from earlier work.
The next series deals with Walker 256 tumor. The conditions noted are these: rats; cited from earlier work.
For series [7] the following is noted: preclinical, beagle and rhesus monkey; cited from earlier work.
Another series relates to leukemia L-1210. The conditions noted are these: mice; cited from earlier work.

Take `CC[C@@]1(OC(=O)C(N)CCC(=O)O)C(=O)OCc2c1cc1n(c2=O)Cc2cc3ccccc3nc2-1` (some centres unmarked) [Formula 13]: the half-life in series [1] is 35 min; in [2], 18 min. In addition, in “Aqueous solubility” (read-out: Aqueous solubility), the solubility amounted to 6000 µg/mL. Further, the response vs control in vivo at 50 mg/kg in the series on L-1210 lymphoid leukemia (L1210, IP/IP, QD4 × 2) came out at 154%.

Regarding `CCNCC(=O)O[C@]1(CC)C(=O)OCc2c1cc1n(c2=O)Cc2cc3ccccc3nc2-1` [Formula 9], the half-life stood at 40 min in series [1] and 18 min in series [2]. Further, in the series “Aqueous solubility” (read-out: Aqueous solubility), the solubility amounted to 8000 µg/mL. In addition, the response vs control in vivo at 30 mg/kg in the series with L-1210 lymphoid leukemia (L1210, IP/IP, QD4 × 2) came to 170%.

On to `CC[C@@](O)(C(=O)O)c1cc2n(c(=O)c1CO)Cc1cc3ccccc3nc1-2` [Sodium camptothecin], for which, in series [3], the “Potency relative to parent camptothecin” value is recorded as 10-20%. For the same compound, in [4], the Clinical outcome is “disappointing” and the Clinical toxicity entry is reported as “unexpected toxicity that precluded achievement of therapeutically useful doses”. The Solubility in water in series [5] (in water) is over 50000 µg/mL.

For the compound `CC[C@@]1(OC(=O)CCC(=O)O)C(=O)OCc2c1cc1n(c2=O)Cc2cc3ccccc3nc2-1` [Formula 14, Camptothecin-20-O-hemisuccinate sodium salt], the results for the half-life in [1] and in series [2] were 40 min and 16 min, respectively. Besides, in the series “Aqueous solubility” (read-out: Aqueous solubility), the solubility came to 13000 µg/mL. In addition, the response vs control in vivo at 47 mg/kg in the series on L-1210 lymphoid leukemia (L1210, 47 mg/Kg per injection, IP/IP, QD4 × 2) was found to be 200%.

With `CC[C@@]1(OC(=O)C(N)CCCCCN)C(=O)OCc2c1cc1n(c2=O)Cc2cc3ccccc3nc2-1` (some centres unmarked) [Formula 12], the half-life in series [1] worked out at 48 min; in series [2], 20 min. For the same compound, the solubility in the series “Aqueous solubility” (read-out: Aqueous solubility) worked out at 15000 µg/mL. Moreover, the response vs control in vivo at 50 mg/kg with L-1210 lymphoid leukemia (L1210, IP/IP, QD4 × 2) was 253%.

`CC[C@@]1(OP(=O)(O)O)C(=O)OCc2c1cc1n(c2=O)Cc2cc3ccccc3nc2-1` [Formula 15, Camptothecin-20-phosphate sodium salt]: the half-life in [1] worked out at 27 min; in series [2], 20 min. Moreover, the solubility in “Aqueous solubility” (read-out: Aqueous solubility) is 8000 µg/mL. Further, in the series with L-1210 lymphoid leukemia (L1210, 44 mg/Kg per injection, IP/IP, QD4 × 2), the response vs control in vivo at 44 mg/kg was determined as 192%.

As to `CC[C@@]1(OC(=O)CN)C(=O)OCc2c1cc1n(c2=O)Cc2cc3ccccc3nc2-1` [Formula 7, Camptothecin-20-O-glycinate.HCl], the half-life in series [1] came to 36 min; in [2] it was 15 min. Moreover, the solubility in the series “Aqueous solubility” (read-out: Aqueous solubility) was determined as 6000 µg/mL. Besides, the response vs control in vivo at 15 mg/kg in the series on L-1210 lymphoid leukemia (L1210, 15 mg/Kg per injection, IP/IP, QD4 × 2) came to 162%.

Regarding `CC[C@@]1(OC(=O)CNC)C(=O)OCc2c1cc1n(c2=O)Cc2cc3ccccc3nc2-1` [Formula 8], the half-life in series [1] is 28 min; in [2] it was 13 min. For the same compound, the solubility in “Aqueous solubility” (read-out: Aqueous solubility) is 4000 µg/mL. In the series with L-1210 lymphoid leukemia (L1210, IP/IP, QD4 × 2), the response vs control in vivo at 30 mg/kg came out at 191%.

`CC[C@@]1(O)C(=O)OCc2c1cc1n(c2=O)Cc2cc3ccccc3nc2-1` [Camptothecin]: the Toxicity result in [6] is recorded as “highly toxic”. The amount in solution in the series “Aqueous solubility” (solubility) came to 50 µg/mL (≈ 144 µM). In the series on Walker 256 tumor, the “Carcinostatic activity, Walker 256 tumor” value was “inhibitor activity”. Moreover, the “Solubility in aqueous vehicles” value in series [5] (aqueous vehicles suitable for parenteral administration) is reported as “practically insoluble”. Moreover, in series [7], the “Eosinophilia and bone marrow depression” value was “moderate eosinophilia and bone marrow depression”; the Hepatotoxicity result is “Minimal hepatotoxicity”; the “Major dose-limiting toxic effect” value is “Hemorrhagic enterocolitis”. In the series with leukemia L-1210, the “Carcinostatic activity, leukemia L-1210” value is “inhibitor activity”. Moreover, in the series on L-1210 lymphoid leukemia (L1210, ip), the response vs control in vivo at 8 mg/kg worked out at 197%.

As for `CCN(CC)CC(=O)O[C@]1(CC)C(=O)OCc2c1cc1n(c2=O)Cc2cc3ccccc3nc2-1` [Formula 10, Camptothecin-20-O-(N,N-diethyl)glycinate.HCl], in the series “Aqueous solubility” (read-out: Aqueous solubility), the solubility was found to be 5000 µg/mL. Besides, the half-life in series [2] amounted to 45 min. In addition, in the series with L-1210 lymphoid leukemia (L1210, IP/IP, QD4 × 2), the response vs control in vivo at 30 mg/kg was found to be 256%.
